Tests used:
[1] = system: adults with plaque psoriasis; experiment: Long-term extension study (PSOARING 3): % BSA affected; format: in vivo, human; conditions: Week 40 OC; Vehicle (Pivotal)
Procedure: The % BSA affected is an estimate of the percentage of total involved skin with psoriasis. For the purpose of clinical estimation, the total palmar surface of the subject's palm and digits was assumed to be approximately equivalent to 1% BSA. The % BSA affected by psoriasis was evaluated (from 0% to 100%). Details on calculation of approximate % BSA involvement in each subject (total and individual) can be found in Appendix 2 of the protocol. Percent BSA is a static assessment made without reference to previous scores.
At Screening, Baseline, and for all efficacy assessments, lesions on the subject's scalp, palms, fingernails, toenails, and soles were not included in the calculation of % BSA affected as these areas were excluded from the efficacy analyses.

[2] = system: adults with plaque psoriasis; experiment: Long-term extension study (PSOARING 3): PASI score, PASI75, PASI90; format: in vivo, human
Excerpt: The PASI scoring system is a widely used, standard, clinical tool for assessing the severity of psoriasis that takes into account the overall severity of erythema (redness), induration (plaque thickness), scale, and the extent of % BSA affected with psoriasis. The 3 clinical signs are each graded on a 5 point scale (0 to 4) and the % BSA affected is scored on a 7 point scale (0 to 6) for each of the 4 specified body regions (head, upper extremities, trunk, and lower extremities). Individual scores are multiplied by a weighted factor for each body region; the sum of these scores gives the overall PASI score. Higher scores indicate more severe disease. PASI is a static assessment made without reference to previous scores. Details on PASI calculation can be found in Appendix 2 of the protocol.

[3] = Week 16 LOCF, Tapinarof (Pivotal)
[4] = Week 16 LOCF, Vehicle (Pivotal)
[5] = Week 16 OC, Tapinarof (Pivotal)
[6] = Week 40 LOCF, Tapinarof (Pivotal)
[7] = Week 40 LOCF, Vehicle (Pivotal)
[8] = Week 40 OC, Tapinarof (Pivotal)

## CC(C)c1c(O)cc(/C=C/c2ccccc2)cc1O [Tapinarof Cream 1%]
[1]
  % BSA affected, Percent CFBL, Median: −86.06%
[2]; Baseline, Overall
  PASI, Observed, Mean: 4.76
  PASI, Observed, Median: 3.40
[2]; Baseline, Tapinarof (Pivotal)
  PASI, Observed, Mean: 3.28
  PASI, Observed, Median: 2.30
[2]; Week 16 LOCF, Overall
  PASI, CFBL, Mean: −1.80
  PASI, CFBL, Median: −0.90
  PASI, Observed, Mean: 2.99
  PASI, Observed, Median: 1.80
  PASI, Percent CFBL, Mean: −20.93%
  PASI, Percent CFBL, Median: −40.91%
[2]; [3]
  PASI, CFBL, Mean: −0.54
  PASI, CFBL, Median: −0.20
  PASI, Observed, Mean: 2.74
  PASI, Observed, Median: 1.80
  PASI, Percent CFBL, Mean: −3.20%
  PASI, Percent CFBL, Median: −25.00%
[2]; [4]
  PASI, CFBL, Mean: −4.24
  PASI, CFBL, Median: −3.80
  PASI, Observed, Mean: 3.47
  PASI, Observed, Median: 2.40
  PASI, Percent CFBL, Mean: −51.02%
  PASI, Percent CFBL, Median: −59.38%
[2]; Week 16 OC, Overall
  PASI, CFBL, Mean: −1.99
  PASI, CFBL, Median: −1.00
  PASI, Observed, Mean: 2.57
  PASI, Observed, Median: 1.80
  PASI, Percent CFBL, Mean: −25.35%
  PASI, Percent CFBL, Median: −44.72%
[2]; [5]
  PASI, CFBL, Mean: −0.67
  PASI, CFBL, Median: −0.40
  PASI, Observed, Mean: 2.38
  PASI, Observed, Median: 1.60
  PASI, Percent CFBL, Mean: −7.79%
  PASI, Percent CFBL, Median: −30.00%
[2]; Week 16 OC, Vehicle (Pivotal)
  PASI, CFBL, Mean: −4.59
  PASI, CFBL, Median: −3.80
  PASI, Observed, Mean: 2.95
  PASI, Observed, Median: 2.10
  PASI, Percent CFBL, Mean: −55.09%
  PASI, Percent CFBL, Median: −64.02%
[2]; Week 40 LOCF, Overall
  PASI, CFBL, Median: −0.90
  PASI, Observed, Mean: 2.97
  PASI, Observed, Median: 1.80
  PASI, Percent CFBL, Mean: −10.45%
  PASI, Percent CFBL, Median: −44.44%
[2]; [6]
  PASI, CFBL, Mean: −0.48
  PASI, CFBL, Median: −0.20
  PASI, Observed, Mean: 2.80
  PASI, Observed, Median: 1.80
  PASI, Percent CFBL, Mean: 11.96%
  PASI, Percent CFBL, Median: −27.27%
[2]; [7]
  PASI, CFBL, Mean: −4.42
  PASI, CFBL, Median: −3.90
  PASI, Observed, Mean: 3.28
  PASI, Observed, Median: 2.00
  PASI, Percent CFBL, Mean: −48.42%
  PASI, Percent CFBL, Median: −68.66%
[2]; Week 40 OC, Overall
  PASI, CFBL, Mean: −2.14
  PASI, CFBL, Median: −1.20
  PASI, Observed, Mean: 2.36
  PASI, Observed, Median: 1.60
  PASI, Percent CFBL, Mean: −16.18%
  PASI, Percent CFBL, Median: −56.70%
[2]; [8]
  PASI, CFBL, Mean: −0.51
  PASI, CFBL, Median: −0.30
  PASI, Observed, Mean: 2.38
  PASI, Observed, Median: 1.60
  PASI, Percent CFBL, Mean: 8.49%
  PASI, Percent CFBL, Median: −35.24%
[2]; Week 40 OC, Vehicle (Pivotal)
  PASI, CFBL, Mean: −5.53
  PASI, CFBL, Median: −4.80
  PASI, Observed, Mean: 2.31
  PASI, Observed, Median: 1.40
  PASI, Percent CFBL, Mean: −60.12%
  PASI, Percent CFBL, Median: −76.39%
